Experiments:
BlaR-CTD receptor [1] = target: T1, BlaR-CTD receptor (Bacillus licheniformis, UniProt P12287); assay: 5-minute test: BlaR-CTD coupled to gold beads, membrane test device, milk; type: binding; details: 47° C.; for concentration detected in a sample of milk: test carried out in 5 minutes, positive when 1st band less intense than 2nd band; for Intensity 1st band: 5-minute test, scale 0 to 10, reference band 6
T1 construct: uses the BlaR-CTD receptor coupled to gold beads
Experimental: (§1) This example illustrates the detection in milk of antibiotics containing a β-lactam ring, which are controlled by the health authorities. The test described in this example uses the BlaR-CTD receptor coupled to gold beads which serve as labelling agents, and uses a support in the form of a test device comprising a solid support to which membranes are attached.
6 samples of fresh milk containing 0; 2; 4; 6; 8 and 10 ppb of cloxacillin, respectively, are prepared. Each of these solutions is then analyzed in the following way.
(§2) A 200 μl aliquot sample of milk and 45.27 μl of solution prepared in Example 1.1.3 are taken and placed in a glass flask. This mixture is incubated for 3 minutes at 47° C. A test device is taken and placed vertically in the glass flask such that the first end of the test device is in contact with the mixture and such that the second end rests on the wall of the glass flask. The mixture is left to migrate on the test device, while incubating the assembly for 2 minutes at 47° C.
(§3) An intensity value ranging from 0 to 10 is attributed to the bands detected, the value 10 being given to the most intense band and the value 0 being given to the least intense band. According to this scale, a value of 6 is assigned to the reference band. The intensity of the signal observed in the first band is inversely proportional to the amount of cloxacillin present in the sample.
(§4) In this example, when the first band has an intesity less than that of the second band, the test is considered as being positive.

BlaR-CTD receptor [2] = target: T1, BlaR-CTD receptor; assay: 3-minute rapid test: BlaR-CTD coupled to gold beads, membrane test device, milk; type: binding; details: test carried out in 3 minutes, 47° C.; positive when 1st band less intense than 2nd band
Experimental: as §1
7 samples of fresh milk containing 0; 1; 2; 3; 4; 5 and 6 ppb of penicillin G, respectively, are prepared. Each of these solutions is then analyzed in the following way:
as §2, with “1 minute” for “3 minutes”
as §3, with “penicillin G” for “cloxacillin”
as §4

[3] = tested on: protein isolated from an antibiotic-sensitive microorganism, such as Bacillus stearothermophilus; details: Example 1 of European Patent Application 593 112; cited from earlier work
BlaR-CTD receptor [4] = target: T1, BlaR-CTD receptor; assay: 9-minute test: BlaR-CTD coupled to gold beads, membrane test device, milk; type: binding; details: test carried out in 9 minutes, 47° C.; positive when 1st band less intense than 2nd band
Experimental: as §1
6 samples of fresh milk containing 0; 4; 6; 8; 10 and 12 ppb of cephapirin, respectively, are prepared. Each of these solutions is then analyzed in the following way.
as §2, with “for 7” for “for 3”
as §3, with “cephapirin” for “cloxacillin”
as §4

[5] = target: T2, BlaR-CTD receptor in the form of two fusion proteins with alkaline phosphatase and peroxidase (Bacillus licheniformis, UniProt P12287); assay: Example 3: BlaR-CTD fusion proteins with alkaline phosphatase and peroxidase, cephalosporin C microplate, milk; type: binding; details: absorbance at 405 nm, 47° C., at the control thresholds required by the US authorities
T2 construct: uses the BlaR-CTD receptor in the form of two fusion proteins with alkaline phosphatase and peroxidase, respectively; alkaline phosphatase, chemically coupled (Boehringer-Mannheim 1464752); peroxidase, chemically coupled (Boehringer-Mannheim 1428861)
T2 sequence (P12287 354-601): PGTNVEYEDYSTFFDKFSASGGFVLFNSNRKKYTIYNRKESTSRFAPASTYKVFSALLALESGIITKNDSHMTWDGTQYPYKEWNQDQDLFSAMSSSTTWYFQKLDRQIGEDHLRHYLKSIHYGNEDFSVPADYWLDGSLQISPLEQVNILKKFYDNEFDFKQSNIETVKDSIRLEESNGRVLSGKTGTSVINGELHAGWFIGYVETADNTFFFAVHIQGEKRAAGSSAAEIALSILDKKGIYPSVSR
Source text: This example illustrates the detection in milk of 3 antibiotics containing a β-lactam ring which are controlled by the health authorities. The test described in this example uses the BlaR-CTD receptor in the form of two fusion proteins with alkaline phosphatase and peroxidase, respectively, and uses a support in the form of a microplate.
Polystyrene microplates with high protein adsorption, of the brand name NUNK (Immuno Plate: Maxisorp type) or of the brand name GREINER (microlon 600, reference 705071), are used. The microplate cuvettes are washed with 150 mM, pH 7.2 PBS buffer. Next, an aliquot of the solution prepared in Example 3.3.1. is incubated for 24 hours at 4° C. in the cuvettes. After incubation, the cuvettes are washed three times with 150 mM, pH 7.2 PBS buffer, 0.1% Tween-20. The tube is then saturated for two hours at 20° C. with 150 mM, pH 7.2 PBS saturation buffer, 5% BSA. After washing three times with washing buffer, the tubes are dried and stored at 4° C. away from moisture.
For the cuvettes intended for the BlaR-CTD-alkaline phosphatase recognition agent, the washing buffer used is 1 M, pH 9.8 diethanolamine, 0.5 mM MgCl2: for the cuvettes intended for the BlaR-CTD-peroxidase recognition agent, the washing buffer used is 50 mM, pH 5 potassium phosphate.
1.4 picomol of labelled recognition agent are incubated in the presence of 100 μl of doped milk for 5 minutes at 47° C. The milk is transferred using a pipette into a cuvette which has been pretreated as indicated in Example 2.3. The milk is then incubated for 2 minutes at 47° C. […] The plate is then placed in an automatic spectrophotometer for ELISA plates, the wavelength being set at 405 nm.

T1 sequence (P12287 354-601): as above

Structure (SMILES): Cc1onc(-c2ccccc2)c1C(=O)N[C@@H]1C(=O)N2[C@@H]1SC(C)(C)[C@@H]2C(=O)O [oxacillin]
- concentration detected in a sample of milk (BlaR-CTD receptor [1]): 8 ppb

Structure (SMILES): CC1(C)S[C@@H]2[C@H](NC(=O)[C@H](N)c3ccc(O)cc3)C(=O)N2[C@H]1C(=O)O [amoxicillin]
- concentration detected in a sample of milk (BlaR-CTD receptor [2]): 5 ppb
- concentration detected [3]: 5 ppb
- concentration detected in a sample of milk (BlaR-CTD receptor [4]): 4 ppb
- concentration detected in a sample of milk (BlaR-CTD receptor [1]): 4 ppb

Structure (SMILES): CC1(C)S[C@@H]2[C@H](NC(=O)[C@H](N)c3ccccc3)C(=O)N2[C@H]1C(=O)O [ampicillin]
- concentration detected in a sample of milk (BlaR-CTD receptor [2]): 5 ppb
- concentration detected [3]: 10 ppb
- concentration detected in a sample of milk (BlaR-CTD receptor [4]): 4 ppb
- concentration detected in a sample of milk (BlaR-CTD receptor [1]): 4 ppb

Structure (SMILES): Cc1nnc(SCC2=C(C(=O)O)N3C(=O)[C@@H](NC(=O)Cn4cnnn4)[C@H]3SC2)s1 [cefazoline]
- concentration detected in a sample of milk (BlaR-CTD receptor [4]): 45 ppb
- concentration detected in a sample of milk (BlaR-CTD receptor [1]): 60 ppb

Structure (SMILES): Cc1onc(-c2c(Cl)cccc2Cl)c1C(=O)N[C@@H]1C(=O)N2[C@@H]1SC(C)(C)[C@@H]2C(=O)O [dicloxacillin]
- concentration detected in a sample of milk (BlaR-CTD receptor [1]): 8 ppb

Structure (SMILES): Cc1onc(-c2ccccc2Cl)c1C(=O)N[C@@H]1C(=O)N2[C@@H]1SC(C)(C)[C@@H]2C(=O)O [cloxacillin]
- concentration detected in a sample of milk (BlaR-CTD receptor [2]): less than 10 ppb
- concentration detected in a sample of milk (BlaR-CTD receptor [4]): 4 ppb
- concentration detected in milk [5]: 10 ppb
- Intensity 1st band (BlaR-CTD receptor [1]; 2 ppb cloxacillin in milk): 6
- Intensity 1st band (BlaR-CTD receptor [1]; 4 ppb cloxacillin in milk): 5
- Intensity 1st band (BlaR-CTD receptor [1]; 6 ppb cloxacillin in milk): 3
- Intensity 1st band (BlaR-CTD receptor [1]; 8 ppb cloxacillin in milk): 3
- Intensity 1st band (BlaR-CTD receptor [1]; 10 ppb cloxacillin in milk): 3
- concentration detected in a sample of milk (BlaR-CTD receptor [1]): less than 4 ppb

Structure (SMILES): CCOc1ccc2ccccc2c1C(=O)N[C@@H]1C(=O)N2[C@@H]1SC(C)(C)[C@@H]2C(=O)O [nafcillin]
- concentration detected in a sample of milk (BlaR-CTD receptor [1]): 20 ppb

Structure (SMILES): CO/N=C(\C(=O)N[C@@H]1C(=O)N2C(C(=O)[O-])=C(C[n+]3cccc4c3CCCC4)CS[C@H]12)c1csc(N)n1 [cefquinone]
- concentration detected in a sample of milk (BlaR-CTD receptor [1]): less than 20 ppb

From patent publication US8106155B2, “Test kit for determining process for determining antibiotics containing a beta-lactam ring in a biological fluid” (Neogen Corporation, priority 1998, dated 2012)
